pIC50: −log10 of the molar value. Structures can show the parent of a compound that is named as a salt.
Biological target: cloned human NR1/NR2B ion channels (Homo sapiens (Human), UniProt Q05586+Q13224)
Experiment: HNR2BC: effects of test articles on cloned human NR1/NR2B ion channels expressed in mammalian cells (FLIPR calcium flux)
Assay type: cell-based
Settings: cloned human NR1/NR2B, Table 5
Summary of the method: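 Compounds were added to dye-loaded cells for 5 min with fluorescence monitored for agonism, followed by co-agonists (glutamate ~EC80, glycine 10 μM saturating) for 5 min. Cells stably expressed inducible human NR1/NR2B, and the buffer was pH 7.4. The FLIPR Ca2+ flux signal was normalized against control wells.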

Chain of cloned human NR1/NR2B ion channels (Q13224 27-1484, other chains not shown): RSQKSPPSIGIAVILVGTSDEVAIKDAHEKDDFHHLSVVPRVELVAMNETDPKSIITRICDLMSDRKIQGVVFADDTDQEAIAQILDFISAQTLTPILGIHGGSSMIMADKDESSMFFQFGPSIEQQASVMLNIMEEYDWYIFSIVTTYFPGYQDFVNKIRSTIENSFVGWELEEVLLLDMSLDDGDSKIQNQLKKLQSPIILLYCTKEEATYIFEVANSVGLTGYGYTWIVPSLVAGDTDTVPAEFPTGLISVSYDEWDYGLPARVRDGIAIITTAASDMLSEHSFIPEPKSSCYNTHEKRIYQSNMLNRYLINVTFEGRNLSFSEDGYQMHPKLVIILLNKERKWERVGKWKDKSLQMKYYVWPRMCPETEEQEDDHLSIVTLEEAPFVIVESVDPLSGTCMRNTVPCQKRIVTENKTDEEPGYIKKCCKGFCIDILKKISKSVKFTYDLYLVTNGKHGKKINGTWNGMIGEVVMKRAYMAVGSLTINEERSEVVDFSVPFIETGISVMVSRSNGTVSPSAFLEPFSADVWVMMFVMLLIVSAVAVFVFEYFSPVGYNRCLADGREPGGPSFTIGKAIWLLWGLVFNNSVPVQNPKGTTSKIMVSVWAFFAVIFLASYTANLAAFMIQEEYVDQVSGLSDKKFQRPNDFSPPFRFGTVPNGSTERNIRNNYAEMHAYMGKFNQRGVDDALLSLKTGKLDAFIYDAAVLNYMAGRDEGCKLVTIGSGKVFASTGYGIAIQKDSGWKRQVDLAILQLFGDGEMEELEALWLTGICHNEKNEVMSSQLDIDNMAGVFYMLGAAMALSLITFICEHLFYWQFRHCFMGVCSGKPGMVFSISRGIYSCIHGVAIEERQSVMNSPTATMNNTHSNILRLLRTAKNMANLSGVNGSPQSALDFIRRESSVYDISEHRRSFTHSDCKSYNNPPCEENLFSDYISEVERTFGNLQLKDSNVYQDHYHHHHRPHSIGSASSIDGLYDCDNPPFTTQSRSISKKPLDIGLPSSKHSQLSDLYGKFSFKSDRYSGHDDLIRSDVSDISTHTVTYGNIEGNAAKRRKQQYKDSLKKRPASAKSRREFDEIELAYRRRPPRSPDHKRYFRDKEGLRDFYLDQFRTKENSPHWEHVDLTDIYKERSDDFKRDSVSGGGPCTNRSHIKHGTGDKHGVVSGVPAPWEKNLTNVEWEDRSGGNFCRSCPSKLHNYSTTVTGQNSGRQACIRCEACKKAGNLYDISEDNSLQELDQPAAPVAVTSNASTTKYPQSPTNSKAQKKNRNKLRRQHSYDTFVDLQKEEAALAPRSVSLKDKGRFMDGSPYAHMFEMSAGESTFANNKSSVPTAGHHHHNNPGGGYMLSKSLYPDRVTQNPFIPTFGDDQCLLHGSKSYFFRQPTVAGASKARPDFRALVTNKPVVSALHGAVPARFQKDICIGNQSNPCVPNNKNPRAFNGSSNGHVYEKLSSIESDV

Compound | pIC50
O=C(Cn1ccc2ncc(-c3cccc(F)c3)cc21)N1CC(F)C1 [Example 263, 1-(3-Fluoroazetidin-1-yl)-2-[6-(3-fluorophenyl)pyrrolo[3,2-b]pyridin-1-yl]ethanone trifluoroacetate salt] | 6.80
O=C(Cn1ccc2ncc(-c3cccc(C(F)(F)F)c3)cc21)N1CC(F)C1 [Example 265, 1-(3-Fluoroazetidin-1-yl)-2-[6-[3-(trifluoromethyl)phenyl]pyrrolo[3,2-b]pyridin-1-yl]ethanone trifluoroacetate salt] | 7.00
Cc1cccc(-c2cnc3ccn(CC(=O)N4CC(F)C4)c3c2)c1 [Example 266, 1-(3-Fluoroazetidin-1-yl)-2-[6-(m-tolyl)pyrrolo[3,2-b]pyridin-1-yl]ethanone trifluoroacetate salt] | 6.90
O=C(Cn1ccc2ncc(-c3cccc(C(F)(F)F)c3F)cc21)N1CC(F)C1 [Example 267, 1-(3-Fluoroazetidin-1-yl)-2-[6-[2-fluoro-3-(trifluoromethyl)phenyl]pyrrolo[3,2-b]pyridin-1-yl]ethanone trifluoroacetate salt] | 7.40
CCc1cccc(-c2cnc3ccn(CC(=O)N4CC(F)C4)c3c2)c1 [Example 268, 2-[6-(3-Ethylphenyl)pyrrolo[3,2-b]pyridin-1-yl]-1-(3-fluoroazetidin-1-yl)ethanone trifluoroacetate salt] | 7.10
O=C(Cn1ccc2ncc(-c3ccccc3)cc21)N1CC(F)C1 [Example 270, 1-(3-Fluoroazetidin-1-yl)-2-(6-phenylpyrrolo[3,2-b]pyridin-1-yl)ethanone] | 7.40
Cc1c(F)ccc(-c2cnc3c(F)cn(CC(=O)N4CC(F)(F)C4)c3c2)c1F [Example 271, 1-(3,3-Difluoroazetidin-1-yl)-2-[6-(2,4-difluoro-3-methyl-phenyl)-3-fluoro-pyrrolo[3,2-b]pyridin-1-yl]ethanone] | 7.10
O=C(Cn1ccc2ncc(-c3cccs3)cc21)N1CC(F)C1 [Example 277, 1-(3-Fluoroazetidin-1-yl)-2-[6-(2-thienyl)pyrrolo[3,2-b]pyridin-1-yl]ethanone] | 5.50
O=C(Cn1ccc2ncc(-c3cccs3)cc21)N1CCCC1 [Example 278, 1-Pyrrolidin-1-yl-2-[6-(2-thienyl)pyrrolo[3,2-b]pyridin-1-yl]ethanone] | 6.60
Cc1ccc(-c2cnc3ccn(CC(=O)N4CC(F)C4)c3c2)s1 [Example 280, 1-(3-Fluoroazetidin-1-yl)-2-[6-(5-methyl-2-thienyl)pyrrolo[3,2-b]pyridin-1-yl]ethanone] | 7.50
CCc1ccc(-c2cnc3ccn(CC(=O)N4CC(F)C4)c3c2)s1 [Example 281, 2-[6-(5-Ethyl-2-thienyl)pyrrolo[3,2-b]pyridin-1-yl]-1-(3-fluoroazetidin-1-yl)ethanone] | 7.70
CCc1ccc(-c2cnc3ccn(CC(=O)N4CCCC4)c3c2)s1 [Example 282, 2-[6-(5-Ethyl-2-thienyl)pyrrolo[3,2-b]pyridin-1-yl]-1-pyrrolidin-1-yl-ethanone] | 7.10
Cc1ccc(-c2cnc3ccn(CC(=O)N4CCCC4)c3c2)s1 [Example 283, 2-[6-(5-Methyl-2-thienyl)pyrrolo[3,2-b]pyridin-1-yl]-1-pyrrolidin-1-yl-ethanone] | 6.70
O=C(Cn1ccc2ncc(-c3cc(Cl)cs3)cc21)N1CC(F)C1 [Example 285, 2-[6-(4-Chloro-2-thienyl)pyrrolo[3,2-b]pyridin-1-yl]-1-(3-fluoroazetidin-1-yl)ethanone] | 6.80

The remaining lines, values ahead:

pIC50 | Compound
5.40 | O=C(Cn1ccc2ncc(-c3cccc(C(F)(F)F)c3F)cc21)N1CC(F)(F)C1 [Example 255, 1-(3,3-Difluoroazetidin-1-yl)-2-[6-[2-fluoro-3-(trifluoromethyl)phenyl]pyrrolo[3,2-b]pyridin-1-yl]ethanone trifluoroacetate salt]
7.10 | O=C(Cn1ccc2ncc(-c3cccc(F)c3)cc21)N1CC(F)(F)C1 [Example 256, 1-(3,3-Difluoroazetidin-1-yl)-2-[6-(3-fluorophenyl)pyrrolo[3,2-b]pyridin-1-yl]ethanone trifluoroacetate salt]
6.90 | O=C(Cn1ccc2ncc(-c3ccccc3)cc21)N1CC(F)(F)C1 [Example 257, 1-(3,3-Difluoroazetidin-1-yl)-2-(6-phenylpyrrolo[3,2-b]pyridin-1-yl)ethanone trifluoroacetate salt]
6.70 | CCc1cccc(-c2cnc3ccn(CC(=O)N4CC(F)(F)C4)c3c2)c1 [Example 258, 1-(3,3-Difluoroazetidin-1-yl)-2-[6-(3-ethylphenyl)pyrrolo[3,2-b]pyridin-1-yl]ethanone trifluoroacetate salt]
7.50 | Cc1cc(-c2cnc3ccn(CC(=O)N4CC(F)(F)C4)c3c2)ccc1F [Example 259, 1-(3,3-Difluoroazetidin-1-yl)-2-[6-(4-fluoro-3-methyl-phenyl)pyrrolo[3,2-b]pyridin-1-yl]ethanone trifluoroacetate salt]
7.40 | O=C(Cn1ccc2ncc(-c3cccc(C(F)(F)F)c3)cc21)N1CC(F)(F)C1 [Example 260, 1-(3,3-Difluoroazetidin-1-yl)-2-[6-[3-(trifluoromethyl)phenyl]pyrrolo[3,2-b]pyridin-1-yl]ethanone trifluoroacetate salt]
7.30 | Cc1cc(F)ccc1-c1cnc2ccn(CC(=O)N3CC(F)(F)C3)c2c1 [Example 261, 1-(3,3-Difluoroazetidin-1-yl)-2-[6-(4-fluoro-2-methyl-phenyl)pyrrolo[3,2-b]pyridin-1-yl]ethanone trifluoroacetate salt]
7.00 | O=C(Cn1ccc2ncc(-c3ccc(F)c(C(F)(F)F)c3)cc21)N1CC(F)C1 [Example 262, 1-(3-Fluoroazetidin-1-yl)-2-[6-[4-fluoro-3-(trifluoromethyl)phenyl]pyrrolo[3,2-b]pyridin-1-yl]ethanone trifluoroacetate salt]
7.20 | Cc1cc(F)ccc1-c1cnc2ccn(CC(=O)N3CC(F)C3)c2c1 [Example 264, 1-(3-Fluoroazetidin-1-yl)-2-[6-(4-fluoro-2-methyl-phenyl)pyrrolo[3,2-b]pyridin-1-yl]ethanone trifluoroacetate salt]
7.20 | Cc1cccc(-c2cnc3ccn(CC(=O)N4CC(F)(F)C4)c3c2)c1 [Example 269, 1-(3,3-Difluoroazetidin-1-yl)-2-[6-(m-tolyl)pyrrolo[3,2-b]pyridin-1-yl]ethanone]
6.00 | Cc1cc(-c2cnc3ccn(CC(=O)N4CC(O)C4)c3c2)ccc1F [Example 273, 2-[6-(4-Fluoro-3-methyl-phenyl)pyrrolo[3,2-b]pyridin-1-yl]-1-(3-hydroxyazetidine-1-yl)ethanone]
6.30 | CO/N=C(/Cn1ccc2ncc(-c3ccc(F)c(C)c3)cc21)C1CC1 [Example 276, 1-Cyclopropyl-2-[6-(4-fluoro-3-methyl-phenyl)pyrrolo[3,2-b]pyridin-1-yl]-N-methoxy-ethanimine]
6.60 | Cc1ccc(-c2cnc3ccn(CC(=O)N4CC(F)(F)C4)c3c2)s1 [Example 279, 1-(3,3-Difluoroazetidin-1-yl)-2-[6-(5-methyl-2-thienyl)pyrrolo[3,2-b]pyridin-1-yl]ethanone]
7.00 | CCc1ccc(-c2cnc3ccn(CC(=O)N4CC(F)(F)C4)c3c2)s1 [Example 284, 1-(3,3-Difluoroazetidin-1-yl)-2-[6-(5-ethyl-2-thienyl)pyrrolo[3,2-b]pyridin-1-yl]ethanone]
